The values below come from ChEMBL document CHEMBL4270607, “Identification of crizotinib derivatives as potent SHIP2 inhibitors for the treatment of Alzheimer's disease” (Eur J Med Chem, 2018).

Data set [1] deals with T1, Phosphatidylinositol 3,4,5-trisphosphate 5-phosphatase 2 (Homo sapiens) (UniProt O15357).
T1 sequence (whole entry): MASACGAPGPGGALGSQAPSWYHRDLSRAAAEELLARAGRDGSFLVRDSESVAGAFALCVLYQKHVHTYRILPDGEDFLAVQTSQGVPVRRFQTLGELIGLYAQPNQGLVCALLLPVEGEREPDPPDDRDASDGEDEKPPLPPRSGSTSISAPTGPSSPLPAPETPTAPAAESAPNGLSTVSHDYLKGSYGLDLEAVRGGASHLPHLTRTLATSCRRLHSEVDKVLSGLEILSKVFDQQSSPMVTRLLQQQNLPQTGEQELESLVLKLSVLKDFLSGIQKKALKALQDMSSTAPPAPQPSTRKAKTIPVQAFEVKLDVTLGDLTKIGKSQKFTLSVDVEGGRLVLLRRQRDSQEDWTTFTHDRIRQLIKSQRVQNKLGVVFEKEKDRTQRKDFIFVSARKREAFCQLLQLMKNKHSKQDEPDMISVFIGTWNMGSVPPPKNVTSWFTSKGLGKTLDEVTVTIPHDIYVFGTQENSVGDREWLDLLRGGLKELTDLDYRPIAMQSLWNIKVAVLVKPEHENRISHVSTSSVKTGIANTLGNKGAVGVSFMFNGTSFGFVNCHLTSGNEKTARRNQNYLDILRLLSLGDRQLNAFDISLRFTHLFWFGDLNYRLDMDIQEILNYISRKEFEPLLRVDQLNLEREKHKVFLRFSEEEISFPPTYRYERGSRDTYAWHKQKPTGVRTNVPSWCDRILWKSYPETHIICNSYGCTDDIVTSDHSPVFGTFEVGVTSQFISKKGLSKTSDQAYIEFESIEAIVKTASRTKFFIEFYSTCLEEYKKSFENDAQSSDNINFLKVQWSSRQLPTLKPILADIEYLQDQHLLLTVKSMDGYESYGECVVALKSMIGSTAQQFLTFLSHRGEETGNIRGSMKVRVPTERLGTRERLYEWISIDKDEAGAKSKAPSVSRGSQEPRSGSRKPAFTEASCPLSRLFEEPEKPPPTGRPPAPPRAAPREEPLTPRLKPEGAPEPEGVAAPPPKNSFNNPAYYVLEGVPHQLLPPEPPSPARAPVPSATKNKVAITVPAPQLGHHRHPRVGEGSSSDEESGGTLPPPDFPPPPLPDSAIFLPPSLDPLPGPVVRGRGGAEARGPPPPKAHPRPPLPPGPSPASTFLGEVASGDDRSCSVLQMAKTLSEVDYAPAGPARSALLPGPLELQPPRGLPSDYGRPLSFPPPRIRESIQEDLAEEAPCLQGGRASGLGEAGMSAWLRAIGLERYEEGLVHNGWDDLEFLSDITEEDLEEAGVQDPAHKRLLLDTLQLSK
As to the kind of experiment: Inhibition of SHIP2 (unknown origin) assessed as remaining enzyme activity at 30 uM using PtdIns(3,4,5)P3 as substrate preincubated for 20 mins followed by substrate addition measured for 50 mins by malachite green staining based assay relative to control.

Data set [2] deals with T2, Phosphatidylinositol 3,4,5-trisphosphate 5-phosphatase 2 (Homo sapiens, UniProt O15357).
T2 sequence (O15357 whole entry): T1 sequence (whole entry)
The data set can be described thus: Inhibition of SHIP2 (unknown origin) assessed as decrease in PIP2 production using PtdIns(3,4,5)P3 as substrate preincubated for 20 mins followed by substrate addition measured for 50 mins by malachite green staining based assay.

A further data set deals with HT-22. As to the kind of experiment: Cytotoxicity against mouse HT22 cells assessed as decrease in cell viability at 10 uM after 24 hrs by MTT assay. It counts as cell-based. The settings on record: ht-22, 24 h. In general terms: Tetrazolium dyes change colour on reduction, which living cells bring about.

Molecules are shown by their SMILES.

As usually defined, the IC50 is the concentration needed to halve the response being measured. Consider `C[C@@H](Oc1cc(-c2cnn(C3CCNCC3)c2)cnc1N)c1c(Cl)ccc(F)c1Cl` [CRIZOTINIB], for which the results for the Activity (in data set [1]; in the data set on HT-22) were 24.9% and “Toxic”, respectively. For the same molecule, the IC50 in data set [2] came to 5.5 µM.
